Source: US20170119806A1, “[…] LACTONE DERIVATIVES AND METHODS OF MAKING AND USING THEREOF” (OHIO STATE INNOVATION FOUNDATION, priority 2014, published 2017)
“Also recorded” adds a separate entry of the source.

Tests used:
[1] = Solubility in aqueous solutions; format: physicochemical
[2] = target: topo IIα (Homo sapiens, UniProt P11388); assay: Topoisomerase II assay (DNA cleavage/relaxation); format: biochemical; settings: 100 μM test compound
From the text: The formation of linear DNA was detected by separating the SDS-treated reaction products using ethidium bromide gel electrophoresis and quantified by accounting for the relationship between fluorescence and relative band intensity for open circular (OC), linear (LNR), supercoiled (SC), and relaxed (RLX) configurations of DNA.
Topoisomerase II Assay. […] The formation of linear DNA was detected by separating the SDS-treated reaction products using ethidium bromide gel electrophoresis by a modification of a previously described procedure (Hasinoff B B et al. Mol. Pharmacol. 2005, 67, 937-947). In this system, topo II-mediated catalytic conversion of supercoiled pBR322 DNA to the “relaxed” form of plasmic' DNA can also be observed. A 20 μL cleavage assay reaction mixture contained 250 ng topo IIα protein, 160 ng pBR322 plasmid DNA (NEB, Ipswich, Mass.), 1.0 mM ATP in assay buffer (10 mM Tris-HCl (pH 7.5), 50 mM KCl, 50 mM NaCl, 0.1 mM EDTA, 5 mM MgCl2, 2.5% glycerol), and 100 μM of test compounds or DMSO solvent, as indicated. Assay buffer (17 μL) and test compound/DMSO (1 μL) were mixed and allowed to sit at room temperature for 30 min after which 2 μL of topo IIα was added to initiate the reaction. Tubes were incubated at 37° C. for 15 min, and then quenched with 1% (v/v) SDS/10 mM disodium EDTA/200 mM NaCl. The mixture was treated subsequently with 0.77 mg/mL proteinase K (Sigma) at 55° C. for 60 min to digest the protein, and DNA bands were separated by electrophoresis (18 h at 2 V/cm) on an agarose gel (1.3% w/v) containing 0.7 μg/mL ethidium bromide in TAE buffer pH 8.0 (40 mM Tris base, 0.114% (v/v) glacial acetic acid, 2 mM EDTA). The DNA in the gel was imaged by its fluorescence on a Chemi-Doc XRS+ imager (Bio-Rad, Hercules, Calif.). Linear DNA was quantified by accounting for the relationship between fluorescence and relative band intensity for open circular (QC), linear (LNR), supercoiled (SC), and RLX (relaxed) configurations of DNA (Projan S J et al. Plasmid 1983, 9, 182-190), then calculating % of LNR from the total DNA content in each lane.

[3] = system: HT-29 human colon cancer cells; assay: Cytotoxicity against HT-29 cells
Experimental: The cytotoxicity of the test compounds was screened against HT-29 cells by a previously reported procedure (Ren Y et al. J. Nat. Prod 2011, 74, 1117-1125). Paclitaxel and etoposide were used as positive controls.
All arylnaphthalene lignans isolated from P. poilanet in the present study and their semi-synthetic analogues were evaluated for their cytotoxicity against HT-29 human colon cancer cells, using paclitaxel as the positive control (Table 6) (Ren Y et al. J. Nat. Prod 2011, 74, 1117-1125).

[4] = system: NF-κB p65; assay: Immunoblotting of p65 and p-p65 in NK cells; format: cell-based, human; settings: 10 μM TPCK, 10 μM PL-C and IL-12, 18 h
Experimental: (A) Purified primary human NK cells were treated with 5 and 10 μM PL-C for 18 h. The cells were harvested and lysed for immunoblotting using p65 and p-p65 Abs. β-Actin immunoblotting was included as the internal control. Data shown are for treatment with PL-C alone (top panel) or in combination with IL-12 (10 ng/mL) (middle panel) or IL-15 (100 ng/mL) (bottom panel) and are the representative plots of four donors with similar results. Numbers under each lane represent quantification of p-p65 or p65 via densitometry, after normalizing to β-actin. (B) NKL cells were treated, and data are presented as described in (A). Data from one of three independent experiments with similar results are shown. (C) Purified primary human NK (left panel) or NKL cells (right panel) were cotreated with 10 μM PL-C and IL-12 (10 ng/mL) in the presence or absence of the NF-κB inhibitor TPCK (10 μM) for 18 h. Supernatants were assayed for IFN-γ secretion by ELISA (top panel), and cells were harvested and lysed for immunoblotting of p-p65 (bottom panel). Representative data from one of three donors with the similar data (left panel) and the summary of three independent experiments with similar results (right panel) are shown. **p<0.01. Error bars represent SD.
Immunoblotting. Immunoblotting was performed as described previously (Yu J et al. Immunity 2006, 24, 575-590; Yu J et al. Blood 2010, 115, 274-281). […]

[5] = system: human primary NK cells; assay: IFN-γ production by NK cells (intracellular flow cytometry, ELISA); format: cell-based; settings: 10 μM TPCK, 10 μM PL-C and IL-12, 18 h
Experimental: (A) Chemical structure of PL-C (phyllanthusmin C, 4), (9) Healthy donor PBMCs (left panel) or enriched NK cells (right panel) were treated with DMSO vehicle control or 10 μM PL-C for 18 h in the presence of […] (10 ng/mL) or IL-15 (100 ng/mL). The cells were harvested and analyzed by intracellular flow cytometry to determine the frequency of IFN-γ^+ cells in CD56^+CD3^− NK cells (n=8 for PBMC and n=5 for enriched NK). (C) Highly purified (≧99.5%) human primary NK cells were treated with 10 μM PL-C for 18 h to determine the levels of IFN-γ secretion by ELISA. IFN-γ secretion from treatment with PL-C alone (left panel) or in combination with IL-12 (10 ng/mL, middle panel) or IL-15 (100 ng/mL, right panel) is shown. (D) Cells were treated as described in (C) and harvested at 12 h, IFNG mRNA expression was assessed by real-time RT-PCR, and the relative IFNG mRNA expression of each treatment was normalized to untreated vehicle control in the same donor. Data are shown as mean±SEM (n=6 in each treatment; error bars represent SEM). *p<0.05, **p<0.01, which denote statistical comparison between the two marked treatment groups (B-D). (E) Highly purified (≧99,5%) primary human NK cells were treated with 10 μM. PL-C in combination with various concentrations of IL-12 (10, 1, and 0.1 ng/mL) or IL-15 (100, 10, and 1 ng/mL) for 24 h to determine the levels of IFN-γ secretion. Representative data from one of three donors with the similar data are shown. *p<0.05, **p<0.01, which denote statistical comparison between the two marked treatment groups and are calculated from data of all tested donors. Error bars represent SD. […]
Isolation of PBMCs and NK cells. […] The purity of enriched NK cells was ≧80% assessed by flow cytometric analysis after staining with CD56-allophycocyanin and CD3-FITC Abs (BD Bio-sciences, San Jose, Calif.). […] The purity of magnetic bead-purified NK cells was ≧99.5%, as determined by the aforementioned flow cytometric analysis. […]

topo IIα, sequence (P11388 whole entry): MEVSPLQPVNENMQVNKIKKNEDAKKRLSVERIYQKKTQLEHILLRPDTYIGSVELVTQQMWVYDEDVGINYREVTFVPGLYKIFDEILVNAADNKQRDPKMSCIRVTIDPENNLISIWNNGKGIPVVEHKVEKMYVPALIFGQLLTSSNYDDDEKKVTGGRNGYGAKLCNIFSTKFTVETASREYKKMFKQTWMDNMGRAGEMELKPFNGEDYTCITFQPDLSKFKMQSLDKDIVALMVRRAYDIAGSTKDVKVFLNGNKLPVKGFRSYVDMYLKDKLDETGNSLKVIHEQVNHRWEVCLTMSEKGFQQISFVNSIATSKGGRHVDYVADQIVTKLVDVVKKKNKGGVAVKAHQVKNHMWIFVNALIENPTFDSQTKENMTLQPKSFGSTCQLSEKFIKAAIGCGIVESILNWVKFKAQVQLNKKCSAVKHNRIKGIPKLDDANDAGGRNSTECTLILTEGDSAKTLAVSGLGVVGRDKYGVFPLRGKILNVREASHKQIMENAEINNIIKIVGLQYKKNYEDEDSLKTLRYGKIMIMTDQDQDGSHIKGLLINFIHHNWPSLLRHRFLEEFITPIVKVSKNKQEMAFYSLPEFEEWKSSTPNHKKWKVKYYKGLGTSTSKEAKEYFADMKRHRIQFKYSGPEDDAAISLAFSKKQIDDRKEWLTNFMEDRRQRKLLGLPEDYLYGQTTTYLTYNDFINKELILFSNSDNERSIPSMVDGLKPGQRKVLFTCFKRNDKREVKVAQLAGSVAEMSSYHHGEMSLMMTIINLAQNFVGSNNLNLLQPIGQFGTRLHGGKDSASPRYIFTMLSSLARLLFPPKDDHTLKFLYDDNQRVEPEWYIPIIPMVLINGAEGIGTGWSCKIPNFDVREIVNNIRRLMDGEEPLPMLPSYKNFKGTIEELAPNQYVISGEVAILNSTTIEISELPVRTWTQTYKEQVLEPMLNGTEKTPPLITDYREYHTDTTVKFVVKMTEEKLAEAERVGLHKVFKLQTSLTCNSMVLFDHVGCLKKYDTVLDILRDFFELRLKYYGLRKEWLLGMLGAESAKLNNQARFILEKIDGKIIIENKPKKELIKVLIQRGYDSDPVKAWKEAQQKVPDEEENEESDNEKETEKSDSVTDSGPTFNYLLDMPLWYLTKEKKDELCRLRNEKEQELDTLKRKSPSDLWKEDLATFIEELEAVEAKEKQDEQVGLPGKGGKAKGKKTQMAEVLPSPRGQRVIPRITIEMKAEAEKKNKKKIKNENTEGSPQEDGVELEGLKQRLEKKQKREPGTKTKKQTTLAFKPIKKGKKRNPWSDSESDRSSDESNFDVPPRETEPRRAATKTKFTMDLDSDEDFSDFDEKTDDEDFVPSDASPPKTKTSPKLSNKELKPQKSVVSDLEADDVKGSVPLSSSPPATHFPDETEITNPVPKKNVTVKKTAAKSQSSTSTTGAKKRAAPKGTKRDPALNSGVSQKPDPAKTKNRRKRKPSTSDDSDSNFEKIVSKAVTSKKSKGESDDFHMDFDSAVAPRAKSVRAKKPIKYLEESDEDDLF

Compound: COc1cc2c(O[C@@H]3OC[C@H](OC(C)=O)[C@H](OC(C)=O)[C@H]3OC(C)=O)c3c(c(-c4ccc5c(c4)OCO5)c2cc1OC)C(=O)OC3 [Compound 7, 7-O-((2,3,4-tri-O-acetyl)-α-L-arabinopyranosyl) diphyllin]
- solubility in aqueous solutions [1]: insoluble in aqueous solutions
- topo IIα inhibition (in words) [2]: not topo Ha inhibitors; also recorded: not topo IIα inhibitors
- EC50 ([3]; read-out: ED50, toxicity towards HT-29 cells, natural samples): 110 nM
- IC50 ([3]; read-out: IC50, cytotoxicity toward HT-29 cells): 110 nM

Compound: N-tosyl-L-phenylalanine chloromethyl ketone [TPCK, reference compound]
- effect on PL-C-induced p65 phosphorylation [4]: inhibited PL-C-induced p65 phosphorylation
- effect on PL-C-induced IFN-γ secretion [5]: inhibition of PL-C-induced IFN-γ secretion
